Test results from article PMC9958325 (Nature Communications, 2023).
Several values for one entry are separate records, joined by “and”; a condition that tells them apart may be missing. Equal entries are not always repeated. Where two headings read alike, the source gives them in different places.

How the values were obtained:
[1] = system: SARS-CoV-2 Delta, BA.1 and BA.2 variants; design: species or system hACE2 knock-in mice; details: mouse, in vivo, ip
[2] = system: SARS-CoV-2 TY8-612/β; assay: microbe, parasite or virus in culture; assay type: cell-based
[3] = system: SARS-CoV-2^WK-521; assay: microbe, parasite or virus in culture; assay type: cell-based; details: read-out: EC50 in cell-based assays
[4] = system: SARS-CoV-2 5356/κ; assay: microbe, parasite or virus in culture; assay type: cell-based
[5] = system: SARS-CoV-2 K1734/δ; assay: microbe, parasite or virus in culture; assay type: cell-based
[6] = system: SARS-CoV-2 Delta, BA.1 and BA.2 variants; design: species or system hACE2 knock-in mice; details: mouse, in vivo
[7] = system: SARS-CoV-2 TY7-501/γ; assay: microbe, parasite or virus in culture; assay type: cell-based
[8] = system: SARS-CoV-2 QHN001/α; assay: microbe, parasite or virus in culture; assay type: cell-based
[9] = target: Glycine-added M^pro (Severe acute respiratory syndrome coronavirus 2, UniProt P0DTD1)
[10] = read-out: EC50 against TY8-612/β
[11] = read-out: EC50 β, individual assays
[12] = read-out: EC50 κ, individual assays
[13] = read-out: EC50 δ, individual assays
[14] = read-out: EC50 against Y7-501/γ
[15] = read-out: EC50 γ, individual assays
[16] = read-out: EC50 against QHN001/α
[17] = read-out: EC50 α, individual assays

Row | SMILES | Effect on lung virus titers (in words) [1] | EC50 [2, 10] [nM] | EC50 ([2]; read-out: EC50 β, Average) [nM] | EC50 [2, 11] | EC50 ([4]; read-out: EC50 κ, Average) [nM] | EC50 [4, 12] | EC50 ([5]; read-out: EC50 δ, Average) [nM] | EC50 [5, 13] | EC50 [7, 14] [nM] | EC50 ([7]; read-out: EC50 γ, Average) [nM] | EC50 [7, 15] | EC50 [8, 16] [nM] | EC50 ([8]; read-out: EC50 α, Average) [nM] | EC50 [8, 17] | other results
1 | CC(C)(C)[C@H](NC(=O)C(F)(F)F)C(=O)N1C[C@H]2[C@@H]([C@H]1C(=O)N[C@@H](C[C@@H]1CCNC1=O)C(=O)c1nc3c(F)cccc3s1)C2(C)C [TKB245] | considerably reduced titers of both variants in lung | 28 ± 9 | 28.4 | 19 nM and 36 nM | 20.6 | 19.2 nM and 22.4 nM | 30.4 | 27.6 nM and 33.6 nM | 56 ± 45 | 56.1 | 10 nM and 58.2 nM and 100 nM | 42 ± 42 | 42 | 90 nM and 20 nM and 15.8 nM | EC50 [3]: ~30 nM; Chest micro-CT images vs vehicle control [6]: No relevant differences were; Lung immunohistochemistry, SARS-CoV-2 nucleocapsid protein vs vehicle group [6]: no relevant change in number
2 | CC(C)(C)[C@H](NC(=O)C(F)(F)F)C(=O)N1C[C@H]2[C@@H]([C@H]1C(=S)N[C@@H](C[C@@H]1CCNC1=O)C(=O)c1nc3c(F)cccc3s1)C2(C)C [TKB248] | exerted comparable efficacy against both Omicron BA.1 and BA.2 variants | 287 ± 5 | 288 | 290 nM and 291 nM and 282 nM | 180 | 215 nM and 145 nM | 274 | 270 nM and 311 nM and 240 nM | 228 ± 61 | 228 | 288 nM and 165 nM | 300 ± 1 | 300 | 300 nM and 299 nM | EC50 ([4]; read-out: EC50 against 5356/k): 180 ± 35 nM; Peak ratio, Dimer-1X compound [9]: 9.9%; Peak ratio, Dimer-2X compound [9]: 28.4%; EC50 ([5]; read-out: EC50 against K1734/δ): 273 ± 36 nM
3 | CC(C)(C)[C@H](NC(=O)C(F)(F)F)C(=O)N1C[C@H]2[C@@H]([C@H]1C(=O)N[C@H](C#N)C[C@@H]1CCNC1=O)C2(C)C [Nirmatrelvir, reference compound] | – | – | – | 1700 nM and 1230 nM | – | 1650 nM and 2270 nM and 1060 nM | – | 1420 nM and 1570 nM | – | – | 2200 nM and 2780 nM | – | – | 1420 nM | EC50 ([2]; Severe acute respiratory syndrome coronavirus 2, Vero C1008, read-out: EC50 against TY8-612/β): 1500 ± 240 nM; EC50 ([2]; Severe acute respiratory syndrome coronavirus 2, Vero C1008, read-out: EC50 β, Average): 1500 nM; EC50 ([2]; Severe acute respiratory syndrome coronavirus 2, Vero C1008, read-out: EC50 β, individual assays): 1560 nM; EC50 ([4]; Severe acute respiratory syndrome coronavirus 2, Vero C1008, read-out: EC50 against 5356/k): 1660 ± 606 nM; EC50 ([4]; Severe acute respiratory syndrome coronavirus 2, Vero C1008, read-out: EC50 κ, Average): 1660 nM; EC50 ([5]; Severe acute respiratory syndrome coronavirus 2, Vero C1008, read-out: EC50 against K1734/δ): 1500 ± 78 nM; EC50 ([5]; Severe acute respiratory syndrome coronavirus 2, Vero C1008, read-out: EC50 δ, individual assays): 1510 nM; EC50 ([7]; Severe acute respiratory syndrome coronavirus 2, Vero C1008, read-out: EC50 against Y7-501/γ): 2490 ± 292 nM; EC50 ([7]; Severe acute respiratory syndrome coronavirus 2, Vero C1008, read-out: EC50 γ, Average): 2490 nM; EC50 ([7]; Severe acute respiratory syndrome coronavirus 2, Vero C1008, read-out: EC50 γ, individual assays): 2500 nM; EC50 ([8]; Severe acute respiratory syndrome coronavirus 2, Vero C1008, read-out: EC50 against QHN001/α): 1980 ± 559 nM; EC50 ([8]; Severe acute respiratory syndrome coronavirus 2, Vero C1008, read-out: EC50 α, Average): 1980 nM; EC50 ([8]; Severe acute respiratory syndrome coronavirus 2, Vero C1008, read-out: EC50 α, individual assays): 2540 nM
